Reference: patent US7495024B2, “Phenylalkyl N-hydroxyureas for combating atherosclerotic plaque” (VIA Pharmaceuticals, Inc., priority 2006, dated 2009)

Assays:
ApoE-deficient mice [1] = assay: Histopathological and quantitative assessment of plaque/lesion area in aortic root and aorta (Example 2, FIG. 3); assay type: in vivo; conditions: 28-week old ApoE-deficient mice, 28 days
Description: Four week old female ApoE-deficient knockout mice were fed a high-fat diet set forth in Example 1 for a period of 24 weeks to allow atherosclerotic plaque to build-up. The 28 week old ApoE-deficient mice were then randomized to receive vehicle (0.9% sterile saline administered at 5 mL/kg or compound X administered at two different doses, 10 mg/kg and 50 mg/kg, each in a volume of 5 mL/kg (from concentrations of […] respectively) daily for 28 consecutive days. Saline vehicle and compound X were all prepared fresh daily and administered orally with a 22G gavage syringe. Doses were adjusted based on most recently obtained body weight. The following two treatment groups were tested and compared: 1) the first treatment group consisted of 20 female mice treated only with saline and 20 female mice treated with 10 mg/kg of compound X and 2) the second treatment group consisted of 20 female mice treated with vehicle and 20 female mice treated with 50 mg/kg of compound X.
(§1) The entire treatment was carried out by administering the vehicle or the dosage to the mice once a day for 28 days. […] At terminal sacrifice, aortas were harvested from 16 mice in each of the treatment groups and grossly evaluated, selected tissue from the remaining 4 mice per group were evaluated grossly and fixed and processed for histopathological analysis and quantitative determination of plaque burden.
For quantitative assessment of the atherosclerotic process, in FIG. 2 and FIG. 3, the aortic tree of mice was prepared and described by Tabibiazar, Wagner, et al. Physiol Genomics 22(2): 213-226 (2005). The amount of plaque/lesion area in the aortic root, as well as the entire aorta, was measured. Percent lesion areas were calculated as a total lesion area divided by the total surface area. […]
For the quantitative assessment of the atherosclerotic process in FIG. 3, the amount of plaque/lesion area in the aortic root as well as the entire aorta was measured. Percent lesion area was calculated at total lesion area divided by total surface area.

[2] = system: patients with carotid stenosis undergoing elective carotid endarterectomy; assay: Randomized, double blind, placebo-controlled study in patients with carotid stenosis undergoing carotid endarterectomy (Example 4); assay type: in vivo, human; conditions: 100 mg daily oral
Description: In this randomized, double blind, placebo-controlled study, groups of 40 clinically stable patients between the age of 30 and 80 years with carotid stenosis undergoing elective carotid endarterectomy are treated by orally administering 100 mg of Compound X or placebo. A total of 80 patients are enrolled. Baseline assessments are performed at the start of treatment and these baseline results are compared with repeat assessments during various follow-up periods of treatment. The treatment is conducted for at least twelve weeks at which time these baseline assessments are performed and compared. […]
Plaque samples are obtained from patients following carotid endarterectomy surgery and the samples are analyzed to determine the level of plaque tissue inflammation. […]
The co-primary efficacy variables are: the change from baseline in ex vivo plaque LTB4 synthesis in whole blood and in ex vivo plaque LTB4 concentration after 12 weeks of administration of study medication. […] The significance of the difference between the groups with respect to the ex vivo plaque LTB4 concentrations is assessed by a t-test. […]
The secondary outcome measures of percent macrophage sectional area and number of T lymphocytes in plaque are analyzed using t-tests at the 0.05 alpha level (two sided). […]

ApoE-deficient mice [3] = assay: Gross pathological evaluation of aortas with developed atherosclerotic plaque (Example 2, FIG. 2); assay type: in vivo; conditions: 28-week old ApoE-deficient mice, 28 days
Text: In Examples 1 and 2 knockout mice deficient in producing the protein Apolipoprotein E [apoE] were used. ApoE-deficient mice are known to spontaneously develop atherosclerotic plaque at 12-16 weeks, which process is accelerated by feeding the mice a high fat diet. Because the atherosclerotic lesions found in these mice are histologically similar to those found in humans, the ApoE-deficient mice are used as a model for assessing the effects of a drug on atherosclerotic plaque in humans.
Four week old female ApoE-deficient knockout mice were fed a high-fat diet set forth in Example 1 for a period of 24 weeks to allow atherosclerotic plaque to build-up. […]
as §1, with “burden. […]” for “burden.”

With `CC(C#Cc1ccc(Cc2ccc(F)cc2)s1)N(O)C(N)=O` (stereo not shown) [compound X, N-[3-[5-[(4-fluorophenyl)methyl]-2-thienyl]-1-methyl-2-propynyl]-N-hydroxyurea] the “atherosclerotic plaque formation in the aortic root (histopathological evaluation)” value (ApoE-deficient mice [1]; 10 mg/kg (p<0.07) and 50 mg/kg (p<0.001) oral, vs vehicle) was “dose dependent reduction of atherosclerotic plaque formation”, the “reduction in mean lesion area compared to vehicle” value (ApoE-deficient mice [1]; 50 mg/kg oral, statistically significant) was “approximately 45%” and the “percent plaque lesion area in the aortas” value (ApoE-deficient mice [1]; 10 and 50 mg/kg/day oral, vs vehicle, dose dependent) was “marked reduction of percent plaque lesion area”. For the same compound, the “number of ischemic lesions after carotid endarterectomy by brain MRI using DWI, vs placebo group” value ([2]; 12 weeks) was “reduction in the number of ischemic lesions”, the “level of biomarkers and plaque tissue inflammation, percentage of patients vs placebo group” value ([2]; 12 weeks of dosing) was “reduction in the level of biomarkers and plaque tissue inflammation” and the “atherosclerotic lesions in the proximal aorta, aortic arch, thoracic and abdominal aorta (gross pathological score)” value (ApoE-deficient mice [3]; 10 mg/kg/day or 50 mg/kg/day oral, vs vehicle) was “substantial reduction of atherosclerotic lesions”. For the same compound, the “plaque burden in the proximal aorta and aortic arch compared to vehicle” value (ApoE-deficient mice [3]; 10 and 50 mg/kg/day oral) was “statistically significant reductions in plaque burden”.
